Results reported in the supplement of paper PMC13380429.
± gives the standard deviation of the averaged measurements.

Legend:
Conditions in all cases: 72 h
HepG2 [1] = assay: relative viability EC50 (midpoint between 100% and the lowest measured viability); higher = less toxic
Vero E6 [2] = assay: as above
Calu-3 [3] = assay: as above
Caco-2 [4] = assay: as above
U2OS [5] = assay: as above
HepG2 [6] = assay: cell viability relative to DMSO; higher = less toxic
Vero E6 [7] = assay: as above
Calu-3 [8] = assay: as above
Caco-2 [9] = assay: as above
U2OS [10] = assay: as above
HepG2 [11] = assay: drug sensitivity score (DSS) for viability; higher = more toxic; extreme values may be limits of the assay
Vero E6 [12] = assay: as above
Calu-3 [13] = assay: as above
Caco-2 [14] = assay: as above
U2OS [15] = assay: as above

SMILES	relative viability EC50 (HepG2 [1])	relative viability EC50 (Vero E6 [2])	relative viability EC50 (Calu-3 [3])	relative viability EC50 (Caco-2 [4])	relative viability EC50 (U2OS [5])	cell viability (HepG2 [6]; 1 nM)	cell viability (HepG2 [6]; 10 nM)	cell viability (HepG2 [6]; 100 nM)	cell viability (HepG2 [6]; 1000 nM)	cell viability (HepG2 [6]; 10000 nM)	cell viability (Vero E6 [7]; 1 nM)	cell viability (Vero E6 [7]; 10 nM)	cell viability (Vero E6 [7]; 100 nM)	cell viability (Vero E6 [7]; 1000 nM)	cell viability (Vero E6 [7]; 10000 nM)	cell viability (Calu-3 [8]; 1 nM)	cell viability (Calu-3 [8]; 10 nM)	cell viability (Calu-3 [8]; 100 nM)	cell viability (Calu-3 [8]; 1000 nM)	cell viability (Calu-3 [8]; 10000 nM)	cell viability (Caco-2 [9]; 1 nM)	cell viability (Caco-2 [9]; 10 nM)	cell viability (Caco-2 [9]; 100 nM)	cell viability (Caco-2 [9]; 1000 nM)	cell viability (Caco-2 [9]; 10000 nM)	cell viability (U2OS [10]; 1 nM)	cell viability (U2OS [10]; 10 nM)	cell viability (U2OS [10]; 100 nM)	cell viability (U2OS [10]; 1000 nM)	cell viability (U2OS [10]; 10000 nM)	drug sensitivity score (HepG2 [11])	drug sensitivity score (Vero E6 [12])	drug sensitivity score (Calu-3 [13])	drug sensitivity score (Caco-2 [14])	drug sensitivity score (U2OS [15])
[N-]=[N+]=N[C@]1(CO)O[C@@H](n2ccc(N)nc2=O)[C@H](O)[C@@H]1O [R-1479]	> 10 µM	> 10 µM	> 10 µM	> 10 µM	> 10 µM	112 ± 7.2%	94.25 ± 0.92%	98.3 ± 2.8%	94.7 ± 1.7%	96.2 ± 3.6%	99 ± 3.8%	96.4 ± 1.7%	97.8 ± 1.7%	94.5 ± 2.8%	103 ± 6.7%	91.35 ± 0.78%	99.5 ± 4.4%	102.8 ± 0.78%	100 ± 2.3%	93 ± 1.5%	98.2 ± 3.6%	96.2 ± 4%	90.7%	98.6 ± 11%	96.7 ± 9.1%	98 ± 0.85%	102 ± 2.8%	102 ± 1.3%	105 ± 2.5%	100 ± 0.14%	0	0	0	0	0
C[C@H](NC(=O)CNC(=O)c1cccc(Cl)c1)c1ccccc1	> 10 µM	> 10 µM	> 10 µM	> 10 µM	> 10 µM	102%	107%	98.8%	98.6%	101%	103%	96.2%	96.4%	104%	99.1%	91.2%	95.1%	96.3%	108%	90.8%	100%	102%	96.6%	100%	102%	101%	96.8%	99.7%	98.1%	101%	0	0	0	0	0
O=C(NC1CCOCC1)c1ccc(-c2cc(-c3c[nH]nc3-c3ccccn3)ccn2)cc1	> 10 µM	> 10 µM	> 10 µM	> 10 µM	> 10 µM	96.2%	99.9%	94.8%	104%	93.8%	93.4%	103%	98.8%	107%	102%	101%	120%	103%	99.6%	108%	91%	97.2%	100%	95.7%	93.9%	98.2%	98.4%	100%	94.4%	92.2%	0	0	0	0	0
CCCCNC(=O)[C@@H]1Cc2ccccc2N1C(=O)[C@@H](N)CC [butabindide]	> 10 µM	> 10 µM	> 10 µM	> 10 µM	> 10 µM	106%	97.2%	109%	108%	106%	98.7%	88.4%	98.9%	91.7%	101%	95.2%	99.7%	97.1%	97.1%	128%	89.3%	99.2%	86.1%	103%	108%	95.9%	98.9%	95.7%	106%	106%	0	0	0	0	0
N[C@@H](C(=O)O)c1cc(O)cc(O)c1 [dihydroxyphenylglycine]	> 10 µM	> 10 µM	> 10 µM	> 10 µM	> 10 µM	95.8 ± 10%	92 ± 9.4%	87.9 ± 4.8%	98.2 ± 2.4%	102 ± 8.4%	99.4 ± 5.7%	97.5 ± 7%	98.5 ± 1.9%	99.6 ± 5.4%	95.8 ± 4.7%	104 ± 5.4%	90.5 ± 9.7%	102 ± 1.1%	102 ± 6.4%	105 ± 9.4%	102 ± 3.8%	94.9 ± 1.1%	92.4 ± 7.5%	90.8 ± 4.5%	103 ± 5%	102.7 ± 0.85%	97.2 ± 2.8%	103%	98.8 ± 0.42%	101 ± 2%	0	0	0	0	0
O=c1cc(N2CCOCC2)nc2c3ccccc3ccn12 [compound-401]	> 10 µM	> 10 µM	> 10 µM	> 10 µM	> 10 µM	93%	108%	99.4%	82.8%	78%	102%	97.9%	98%	98.3%	95.9%	93.8%	94.4%	97.9%	99.5%	107%	96.8%	108%	96.4%	99.1%	85.8%	96.2%	99.8%	97.2%	101%	95.5%	2.5	0	0	0.2	0
